Test results published in ChEMBL document CHEMBL3217717, “Synthesis and antiproliferative activity of novel erythromycin derivatives” (Medchemcomm, 2010).

Experiments:
Assay type in all cases: functional, cell-based
[1] = Cytotoxicity against human SGC7901 cells assessed as growth inhibition after 48 hrs by MTT assay; conditions: SGC-7901, 48 h
KB = test: Cytotoxicity against human KB cells assessed as growth inhibition after 48 hrs by MTT assay
[2] = Cytotoxicity against human HT1080 cells assessed as growth inhibition after 48 hrs by MTT assay; conditions: HT-1080, 48 h

Row | SMILES | IC50 [1] | IC50 (KB) | IC50 [2]
1 | CC[C@H]1OC(=O)[C@H](C)[C@@H](O[C@H]2C[C@@](C)(OC)[C@@H](O)[C@H](C)O2)[C@H](C)[C@@H](O[C@@H]2O[C@H](C)C[C@H](N(C)CCN(C)[C@H]3C[C@@H](C)O[C@@H](O[C@@H]4[C@@H](C)[C@H](O[C@H]5C[C@@](C)(OC)[C@@H](O)[C@H](C)O5)[C@@H](C)C(=O)O[C@H](CC)[C@@](C)(O)[C@H](O)[C@@H](C)/C(=N\OCc5cc(OC)c(OC)c(OC)c5)[C@H](C)C[C@@]4(C)O)[C@@H]3O)[C@H]2O)[C@](C)(O)C[C@@H](C)/C(=N/OCc2cc(OC)c(OC)c(OC)c2)[C@H](C)[C@@H](O)[C@]1(C)O | 28.4 µM | 8.3 µM | 3.9 µM
2 | CC[C@H]1OC(=O)[C@H](C)[C@@H](O[C@H]2C[C@@](C)(OC)[C@@H](O)[C@H](C)O2)[C@H](C)[C@@H](O[C@@H]2O[C@H](C)C[C@H](N(C)CCN(C)[C@H]3C[C@@H](C)O[C@@H](O[C@@H]4[C@@H](C)[C@H](O[C@H]5C[C@@](C)(OC)[C@@H](O)[C@H](C)O5)[C@@H](C)C(=O)O[C@H](CC)[C@@](C)(O)[C@H](O)[C@@H](C)/C(=N\OCc5ccccc5)[C@H](C)C[C@@]4(C)O)[C@@H]3O)[C@H]2O)[C@](C)(O)C[C@@H](C)/C(=N/OCOCCOC)[C@H](C)[C@@H](O)[C@]1(C)O | > 100 µM | > 100 µM | > 100 µM
3 | CC[C@H]1OC(=O)[C@H](C)[C@@H](O[C@H]2C[C@@](C)(OC)[C@@H](O)[C@H](C)O2)[C@H](C)[C@@H](O[C@@H]2O[C@H](C)C[C@H](N(C)CCN(C)[C@H]3C[C@@H](C)O[C@@H](O[C@@H]4[C@@H](C)[C@H](O[C@H]5C[C@@](C)(OC)[C@@H](O)[C@H](C)O5)[C@@H](C)C(=O)O[C@H](CC)[C@@](C)(O)[C@H](O)[C@@H](C)C(=O)[C@H](C)C[C@@]4(C)O)[C@@H]3O)[C@H]2O)[C@](C)(O)C[C@@H](C)C(=O)[C@H](C)[C@@H](O)[C@]1(C)O | 18.3 µM | 37.3 µM | > 100 µM
4 | CC[C@H]1OC(=O)[C@H](C)[C@@H](O[C@H]2C[C@@](C)(OC)[C@@H](O)[C@H](C)O2)[C@H](C)[C@@H](O[C@@H]2O[C@H](C)C[C@H](N(C)CC(=O)N(C)[C@H]3C[C@@H](C)O[C@@H](O[C@@H]4[C@@H](C)[C@H](O[C@H]5C[C@@](C)(OC)[C@@H](O)[C@H](C)O5)[C@@H](C)C(=O)O[C@H](CC)[C@@](C)(O)[C@H](O)[C@@H](C)/C(=N/OCOCCOC)[C@H](C)C[C@@]4(C)O)[C@@H]3O)[C@H]2O)[C@](C)(O)C[C@@H](C)/C(=N/OCOCCOC)[C@H](C)[C@@H](O)[C@]1(C)O | 13.3 µM | 28.7 µM | 33.4 µM
5 | C=CCO/N=C1/[C@H](C)C[C@@](C)(O)[C@H](O[C@@H]2O[C@H](C)C[C@H](N(C)CCN(C)[C@H]3C[C@@H](C)O[C@@H](O[C@@H]4[C@@H](C)[C@H](O[C@H]5C[C@@](C)(OC)[C@@H](O)[C@H](C)O5)[C@@H](C)C(=O)O[C@H](CC)[C@@](C)(O)[C@H](O)[C@@H](C)/C(=N\OCC=C)[C@H](C)C[C@@]4(C)O)[C@@H]3O)[C@H]2O)[C@@H](C)[C@H](O[C@H]2C[C@@](C)(OC)[C@@H](O)[C@H](C)O2)[C@@H](C)C(=O)O[C@H](CC)[C@@](C)(O)[C@H](O)[C@H]1C | > 100 µM | 17.5 µM | 27.7 µM
6 | CC[C@H]1OC(=O)[C@H](C)[C@@H](O[C@H]2C[C@@](C)(OC)[C@@H](O)[C@H](C)O2)[C@H](C)[C@@H](O[C@@H]2O[C@H](C)C[C@H](N(C)CCN(C)[C@H]3C[C@@H](C)O[C@@H](O[C@@H]4[C@@H](C)[C@H](O[C@H]5C[C@@](C)(OC)[C@@H](O)[C@H](C)O5)[C@@H](C)C(=O)O[C@H](CC)[C@@](C)(O)[C@H](O)[C@@H](C)/C(=N\OCc5cc(OC)c(OC)c(OC)c5)[C@H](C)C[C@@]4(C)OC)[C@@H]3O)[C@H]2O)[C@](C)(OC)C[C@@H](C)/C(=N/OCc2cc(OC)c(OC)c(OC)c2)[C@H](C)[C@@H](O)[C@]1(C)O | 20 µM | 20.1 µM | 10.3 µM
7 | CC[C@H]1OC(=O)[C@H](C)[C@@H](O)[C@H](C)[C@@H](O[C@@H]2O[C@H](C)C[C@H](N(C)CCN(C)[C@H]3C[C@@H](C)O[C@@H](O[C@@H]4[C@@H](C)[C@H](O)[C@@H](C)C(=O)O[C@H](CC)[C@@](C)(O)[C@H](O)[C@@H](C)/C(=N\OCOCCOC)[C@H](C)C[C@@]4(C)O)[C@@H]3O)[C@H]2O)[C@](C)(O)C[C@@H](C)/C(=N/OCOCCOC)[C@H](C)[C@@H](O)[C@]1(C)O | > 100 µM | > 100 µM | > 100 µM
8 | CC[C@H]1OC(=O)[C@H](C)[C@@H](O[C@H]2C[C@@](C)(OC)[C@@H](O)[C@H](C)O2)[C@H](C)[C@@H](O[C@@H]2O[C@H](C)C[C@H](N(C)CC(=O)N(C)[C@H]3C[C@@H](C)O[C@@H](O[C@@H]4[C@@H](C)[C@H](O[C@H]5C[C@@](C)(OC)[C@@H](O)[C@H](C)O5)[C@@H](C)C(=O)O[C@H](CC)[C@@](C)(O)[C@H](O)[C@@H](C)C(=O)[C@H](C)C[C@@]4(C)OC)[C@@H]3O)[C@H]2O)[C@](C)(OC)C[C@@H](C)C(=O)[C@H](C)[C@@H](O)[C@]1(C)O | 16.2 µM | > 100 µM | 30.9 µM
9 | CC[C@H]1OC(=O)[C@H](C)[C@@H](O)[C@H](C)[C@@H](O[C@@H]2O[C@H](C)C[C@H](N(C)CCN(C)[C@H]3C[C@@H](C)O[C@@H](O[C@@H]4[C@@H](C)[C@H](O)[C@@H](C)C(=O)O[C@H](CC)[C@@](C)(O)[C@H](O)[C@@H](C)[C@@H](O)[C@H](C)C[C@@]4(C)O)[C@@H]3O)[C@H]2O)[C@](C)(O)C[C@@H](C)[C@H](O)[C@H](C)[C@@H](O)[C@]1(C)O | > 100 µM | > 100 µM | > 100 µM
10 | CC[C@H]1OC(=O)[C@H](C)[C@@H](O[C@H]2C[C@@](C)(OC)[C@@H](O)[C@H](C)O2)[C@H](C)[C@@H](O[C@@H]2O[C@H](C)C[C@H](N(C)CCN(C)[C@H]3C[C@@H](C)O[C@@H](O[C@@H]4[C@@H](C)[C@H](O[C@H]5C[C@@](C)(OC)[C@@H](O)[C@H](C)O5)[C@@H](C)C(=O)O[C@H](CC)[C@@](C)(O)[C@H](O)[C@@H](C)/C(=N\OCc5ccccc5)[C@H](C)C[C@@]4(C)O)[C@@H]3O)[C@H]2O)[C@](C)(O)C[C@@H](C)/C(=N/OCc2ccccc2)[C@H](C)[C@@H](O)[C@]1(C)O | > 100 µM | > 100 µM | > 100 µM
11 | CC[C@H]1OC(=O)[C@H](C)[C@@H](O[C@H]2C[C@@](C)(OC)[C@@H](O)[C@H](C)O2)[C@H](C)[C@@H](O[C@@H]2O[C@H](C)C[C@H](N(C)C(=O)CN(C)[C@H]3C[C@@H](C)O[C@@H](O[C@@H]4[C@@H](C)[C@H](O[C@H]5C[C@@](C)(OC)[C@@H](O)[C@H](C)O5)[C@@H](C)C(=O)O[C@H](CC)[C@@](C)(O)[C@H](O)[C@@H](C)C(=O)[C@H](C)C[C@@]4(C)O)[C@@H]3O)[C@H]2O)[C@](C)(OC)C[C@@H](C)C(=O)[C@H](C)[C@@H](O)[C@]1(C)O | 65.9 µM | 27.6 µM | > 100 µM
12 | CC[C@H]1OC(=O)[C@H](C)[C@@H](O)[C@H](C)[C@@H](O[C@@H]2O[C@H](C)C[C@H](N(C)C(=O)CN(C)[C@H]3C[C@@H](C)O[C@@H](O[C@@H]4[C@@H](C)[C@H](O[C@H]5C[C@@](C)(OC)[C@@H](O)[C@H](C)O5)[C@@H](C)C(=O)O[C@H](CC)[C@@](C)(O)[C@H](O)[C@@H](C)/C(=N\OCOCCOC)[C@H](C)C[C@@]4(C)O)[C@@H]3O)[C@H]2O)[C@](C)(OC)C[C@@H](C)C(=O)[C@H](C)[C@@H](O)[C@]1(C)O | > 100 µM | > 100 µM | > 100 µM
13 | CC[C@H]1OC(=O)[C@H](C)[C@@H](O[C@H]2C[C@@](C)(OC)[C@@H](O)[C@H](C)O2)[C@H](C)[C@@H](O[C@@H]2O[C@H](C)C[C@H](N(C)CCN(C)[C@H]3C[C@@H](C)O[C@@H](O[C@@H]4[C@@H](C)[C@H](O[C@H]5C[C@@](C)(OC)[C@@H](O)[C@H](C)O5)[C@@H](C)C(=O)O[C@H](CC)[C@@](C)(O)[C@H](O)[C@@H](C)/C(=N\OCc5ccccc5)[C@H](C)C[C@@]4(C)OC)[C@@H]3O)[C@H]2O)[C@](C)(OC)C[C@@H](C)/C(=N/OCc2ccccc2)[C@H](C)[C@@H](O)[C@]1(C)O | 26.5 µM | 7.6 µM | 9.5 µM
14 | CC[C@H]1OC(=O)[C@H](C)[C@@H](O[C@H]2C[C@@](C)(OC)[C@@H](O)[C@H](C)O2)[C@H](C)[C@@H](O[C@@H]2O[C@H](C)C[C@H](N(C)CCN(C)[C@H]3C[C@@H](C)O[C@@H](O[C@@H]4[C@@H](C)[C@H](O[C@H]5C[C@@](C)(OC)[C@@H](O)[C@H](C)O5)[C@@H](C)C(=O)O[C@H](CC)[C@@](C)(O)[C@H](O)[C@@H](C)C(=O)[C@H](C)C[C@@]4(C)OC)[C@@H]3O)[C@H]2O)[C@](C)(O)C[C@@H](C)[C@H](N)[C@H](C)[C@@H](O)[C@]1(C)O | 57.8 µM | 26.4 µM | 17.8 µM
15 | CCCCCO/N=C1/[C@H](C)C[C@@](C)(OC)[C@H](O[C@@H]2O[C@H](C)C[C@H](N(C)CCN(C)[C@H]3C[C@@H](C)O[C@@H](O[C@@H]4[C@@H](C)[C@H](O[C@H]5C[C@@](C)(OC)[C@@H](O)[C@H](C)O5)[C@@H](C)C(=O)O[C@H](CC)[C@@](C)(O)[C@H](O)[C@@H](C)/C(=N\OCCCCC)[C@H](C)C[C@@]4(C)OC)[C@@H]3O)[C@H]2O)[C@@H](C)[C@H](O[C@H]2C[C@@](C)(OC)[C@@H](O)[C@H](C)O2)[C@@H](C)C(=O)O[C@H](CC)[C@@](C)(O)[C@H](O)[C@H]1C | 30.8 µM | > 100 µM | 54.1 µM
16 | CC[C@H]1OC(=O)[C@H](C)[C@@H](O[C@H]2C[C@@](C)(OC)[C@@H](O)[C@H](C)O2)[C@H](C)[C@@H](O[C@@H]2O[C@H](C)C[C@H](N(C)CCN(C)[C@H]3C[C@@H](C)O[C@@H](O[C@@H]4[C@@H](C)[C@H](O[C@H]5C[C@@](C)(OC)[C@@H](O)[C@H](C)O5)[C@@H](C)C(=O)O[C@H](CC)[C@@](C)(O)[C@H](O)[C@@H](C)/C(=N\OCc5cc(OC)c(OC)c(OC)c5)[C@H](C)C[C@@]4(C)O)[C@@H]3O)[C@H]2O)[C@](C)(OC)C[C@@H](C)C(=O)[C@H](C)[C@@H](O)[C@]1(C)O | 17.4 µM | 30.2 µM | 41.5 µM
